Assay results: US6599943B1, “Use of hydroxyguanidines” (WaPharm AB, priority 1996, dated 2003)

System: rat heart cytosol
Assay: Hydroxyguanidine reducing activity of heart cytosol by radioligand binding assay
Type: biochemical
Details: 70 μM guanoxabenz, 1 hr at 25° C.
Procedure: Assay of hydroxyguanidine reducing activity by radioligand binding. The assay is based on the possibility to measure the affinity of ligands to α2-adrenoceptors by using radioligand binding. In a typical experiment small aliquots of the sample to be measured is added to an assay containing membranes rich in α2-adrenoceptors as well as a suitable concentration of a radioligand capable of binding to α2-adrenoceptors. After the assay mixture has been incubated for a suitable time, to achieve equilibrium, the amount of radioligand bound to the membranes is measured by washing and filtering on GF/C glass fibre filters using methods that are well described in literature, and which are commonly referred to as radioligand binding. The ability of the hydroxyguanidine and its product to inhibit the binding of the radioligand to the α2-adrenoceptor constituted a measure of the hydroxyguanidine/guanidine activity of the reaction mixture. A preferred hydroxyguanidine is one which corresponding guanidine show substantially different affinity compared to the hydroxyguanidine itself. A most preferred example of such a hydroxyguanidine is guanoxabenz.
In a more more exact version of the assay the “apparent affinity” of the mixture of hydroxyguanidine and guanidine-product is measured by constructing a complete competition curve for each sample to be measured. This is achieved by adding different dilutions of the reaction mixture to the radioligand binding assay. Since the sum of the concentration of the hydroxyguanidine and the guanidine product is known, the “apparent affinity” of the mixture can be calculated from the radioligand binding data using standard procedures for radioligand binding data analysis (Uhlén and Wikberg,1991). For the purpose of the present studies the apparent affinity of the reaction mixture was estimated from competition data by using a radioligand binding analysis computer software package (Wan System AB, Trillvägen 13, S-905 92 Umeå, Sweden). The fraction (q) of guanidine product obtained is then given by: [formula] […]

Q: For `N=C(NO)NN=Cc1c(Cl)cccc1Cl` [Guanoxabenz, 2(2,6-dichlorophenyl)methylene-N-hydroxyhydrazine carboxi-imidamide], which “concentration of guanabenz in the sample” value is on record?
A: 6.3 µM

Q: What about the “conversion of guanoxabenz to guanabenz” value of the same compound?
A: 9%

Q: And the “q (fraction of guanidine product)” value?
A: 0.09
